Publication PMC7917437 (Journal of Medicinal Chemistry, 2021)

How the values were obtained:
laminitis = conditions: cited from earlier work
CYP2B6 = test: CYP induction, mRNA by qRT-PCR in cultured human hepatocytes; format: in vitro ADME; conditions: up to 30 μM, i.e., < 2-fold change and/or <20% of the positive control
[1] = test system: mouse, rat, monkey, and human hepatocyte incubations; test: In vitro metabolism in hepatocyte incubations; format: in vitro ADME; conditions: HPLC and mass spectrometry
[2] = test system: chronic constriction injury model of neuropathy; test: Chronic constriction injury model of neuropathy, von Frey assay; format: in vivo, male SD rats; conditions: AUC over 6 h post dose
LPS-induced mouse model = LPS-induced mouse model ref 38; cited from earlier work
clinical = conditions: both, human, plasma, oral
[3] = Phase 1a single ascending dose study in healthy volunteers

Compound | outcome in a laminitic horse scheduled for euthanasia (laminitis; after 5 days of treatment ref 49) | adverse effects from clinical exams and blood work (laminitis; horse, five-day treatment, once daily 0.1 mg/kg ref 49) | outcome in seven other laminitic horses (laminitis; when all other treatments failed ref 50) | effect on CYP2B6 mRNA levels (CYP2B6) | putative metabolites detected [1] | efficacy compared with pregabalin ([2]; at 10–20 fold lower doses, vs pregabalin (30 mg/kg) p = 0.039) | pain measured with a von Frey assay (mechanical withdrawal thresholds) ([2]; male SD rats, oral gavage, 3 mg/kg, vs PEG 300 p ≤ 0.001) | neuroinflammation in the CNS (LPS-induced mouse model) | half-life (clinical) [h] | effective total AUC for a daily dosing regimen ([3]; calculated) [ng·h/mL] | absorption ([3]; human, single oral doses)
O=C(Nc1ccc(OC(F)(F)F)cc1)N[C@H]1CC[C@H](Oc2ccc(C(=O)O)cc2)CC1 [t-TUCB, trans-4-{4-[3-(4-trifluoromethoxy-phenyl)-ureido]-cyclohexyloxy}-benzoic acid] | complete recovery with no recurrent laminitis | no signs of adverse effects | showed improvement in disease | – | – | – | – | – | – | – | –
CC[C@H](C)C(=O)N1CCC(NC(=O)Nc2ccc(OC(F)(F)F)c(F)c2)CC1 [EC5026, (S)-1-(3-Fluoro-4-(trifluoromethoxy)phenyl)-3-(1-(2-methylbutanoyl)piperidin-4-yl)urea] | – | – | – | little or no effect | seven | superior to pregabalin | blocked pain | prevent neuroinflammation | 42 to 59 | 6 | well absorbed with linear dose-proportionality
